# Measurements from doi:10.1101/2023.12.04.569845, “Identification of 4-(6-((2-methoxyphenyl)amino)pyrazin-2-yl)benzoic acids as CSNK2A inhibitors with antiviral activity and improved selectivity over PIM3” (bioRxiv, 2023).
# Like-named read-outs stand apart in the source and are kept apart here.
# Experiments:
# Experiment in all cases: biochemical
# Parameters in all cases: Thermal shift (DSF, SYPRO Orange) Tm shift of recombinant kinase domains at 10 uM compound
# PAK1 = PAK1 (Homo sapiens, UniProt Q13153)
# PAK1, sequence (Q13153 whole entry): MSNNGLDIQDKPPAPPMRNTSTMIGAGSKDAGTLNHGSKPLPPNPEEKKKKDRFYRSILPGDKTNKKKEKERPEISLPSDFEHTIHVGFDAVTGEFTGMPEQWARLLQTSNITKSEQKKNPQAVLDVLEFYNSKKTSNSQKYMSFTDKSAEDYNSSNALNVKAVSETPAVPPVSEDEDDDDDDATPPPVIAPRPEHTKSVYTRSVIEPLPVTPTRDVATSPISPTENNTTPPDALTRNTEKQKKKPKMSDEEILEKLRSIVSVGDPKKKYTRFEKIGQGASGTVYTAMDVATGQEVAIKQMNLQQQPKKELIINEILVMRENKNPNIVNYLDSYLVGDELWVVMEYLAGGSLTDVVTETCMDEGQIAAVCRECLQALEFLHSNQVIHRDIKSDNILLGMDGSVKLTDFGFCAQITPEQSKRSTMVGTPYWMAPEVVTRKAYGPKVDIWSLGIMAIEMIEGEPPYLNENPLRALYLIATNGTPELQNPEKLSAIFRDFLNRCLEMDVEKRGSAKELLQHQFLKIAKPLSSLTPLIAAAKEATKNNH
# Method: (§1) S23 Thermal stability kinase selectivity. The assay was performed as previously described. 9,10 Briefly, recombinant protein kinase domains at a concentration of 2 μM were mixed with 10 μM compound in a buffer containing 20 mM HEPES, pH 7.5, and 500 mM NaCl. SYPRO Orange (5000×, Invitrogen) was added as a fluorescence probe (1 µl per mL). Subsequently, temperature-dependent protein unfolding profiles were measured using the QuantStudio™ 5 realtime PCR machine (Thermo Fisher). […] The temperature was raised with a step rate of 3°C per minute. Data points were analysed with the internal software (Thermal Shift SoftwareTM Version 1.4, Thermo Fisher) using the Boltzmann equation to determine the inflection point of the transition curve.
# DYRK2 = target: T1, DYRK2 (Homo sapiens, UniProt Q92630)
# T1 sequence (Q92630 1-601): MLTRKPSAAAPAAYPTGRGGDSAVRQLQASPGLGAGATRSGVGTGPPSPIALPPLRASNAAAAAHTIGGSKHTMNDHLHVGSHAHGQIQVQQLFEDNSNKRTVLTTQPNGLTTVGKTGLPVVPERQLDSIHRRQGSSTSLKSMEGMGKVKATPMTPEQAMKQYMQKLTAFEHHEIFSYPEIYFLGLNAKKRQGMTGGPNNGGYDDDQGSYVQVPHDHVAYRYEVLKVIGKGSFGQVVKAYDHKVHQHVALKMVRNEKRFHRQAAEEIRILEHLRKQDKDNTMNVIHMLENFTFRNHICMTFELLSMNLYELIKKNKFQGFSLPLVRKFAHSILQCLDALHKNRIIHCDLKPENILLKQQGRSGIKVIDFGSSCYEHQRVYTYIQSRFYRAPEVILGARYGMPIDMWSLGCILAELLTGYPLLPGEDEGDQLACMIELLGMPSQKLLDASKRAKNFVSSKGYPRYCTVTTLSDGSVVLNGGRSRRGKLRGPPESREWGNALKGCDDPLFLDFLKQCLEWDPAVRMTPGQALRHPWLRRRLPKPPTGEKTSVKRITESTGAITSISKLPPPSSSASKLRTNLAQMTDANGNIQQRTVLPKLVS
# Method: as §1
# TAF1 = TAF1 (Homo sapiens, UniProt P21675)
# Method: as §1
# ULK1 = target: T2, ULK1 (Homo sapiens, UniProt O75385)
# T2 sequence (O75385 1-1050): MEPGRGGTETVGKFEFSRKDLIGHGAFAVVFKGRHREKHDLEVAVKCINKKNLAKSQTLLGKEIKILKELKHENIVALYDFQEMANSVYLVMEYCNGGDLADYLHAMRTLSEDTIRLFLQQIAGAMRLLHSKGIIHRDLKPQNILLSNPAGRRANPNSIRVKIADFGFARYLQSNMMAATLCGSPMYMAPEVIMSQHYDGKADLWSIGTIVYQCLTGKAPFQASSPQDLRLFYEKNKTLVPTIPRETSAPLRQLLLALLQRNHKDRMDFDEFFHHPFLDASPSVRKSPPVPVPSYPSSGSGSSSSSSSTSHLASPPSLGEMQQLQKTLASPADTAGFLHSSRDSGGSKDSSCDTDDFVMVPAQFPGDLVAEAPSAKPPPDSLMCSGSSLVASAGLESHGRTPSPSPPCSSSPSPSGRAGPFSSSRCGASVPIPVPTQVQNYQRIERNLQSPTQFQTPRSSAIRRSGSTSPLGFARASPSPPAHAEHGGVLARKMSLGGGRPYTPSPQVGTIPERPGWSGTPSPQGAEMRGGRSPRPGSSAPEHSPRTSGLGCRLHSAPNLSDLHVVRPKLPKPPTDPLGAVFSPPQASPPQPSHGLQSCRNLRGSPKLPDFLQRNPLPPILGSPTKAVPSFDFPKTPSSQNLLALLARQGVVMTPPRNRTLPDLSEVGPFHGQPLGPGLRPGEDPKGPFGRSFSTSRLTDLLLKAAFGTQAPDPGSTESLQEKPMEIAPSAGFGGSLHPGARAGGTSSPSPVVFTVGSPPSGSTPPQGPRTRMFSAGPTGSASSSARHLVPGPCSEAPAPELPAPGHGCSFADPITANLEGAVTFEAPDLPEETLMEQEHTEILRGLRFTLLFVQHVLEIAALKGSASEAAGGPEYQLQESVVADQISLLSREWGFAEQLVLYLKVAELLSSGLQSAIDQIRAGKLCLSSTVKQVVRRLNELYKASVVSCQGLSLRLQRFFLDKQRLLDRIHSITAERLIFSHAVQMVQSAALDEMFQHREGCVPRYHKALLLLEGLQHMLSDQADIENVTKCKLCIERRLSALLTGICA
# Method: as §1
# SLK = SLK (Homo sapiens, UniProt Q9H2G2)
# SLK, sequence (Q9H2G2 whole entry): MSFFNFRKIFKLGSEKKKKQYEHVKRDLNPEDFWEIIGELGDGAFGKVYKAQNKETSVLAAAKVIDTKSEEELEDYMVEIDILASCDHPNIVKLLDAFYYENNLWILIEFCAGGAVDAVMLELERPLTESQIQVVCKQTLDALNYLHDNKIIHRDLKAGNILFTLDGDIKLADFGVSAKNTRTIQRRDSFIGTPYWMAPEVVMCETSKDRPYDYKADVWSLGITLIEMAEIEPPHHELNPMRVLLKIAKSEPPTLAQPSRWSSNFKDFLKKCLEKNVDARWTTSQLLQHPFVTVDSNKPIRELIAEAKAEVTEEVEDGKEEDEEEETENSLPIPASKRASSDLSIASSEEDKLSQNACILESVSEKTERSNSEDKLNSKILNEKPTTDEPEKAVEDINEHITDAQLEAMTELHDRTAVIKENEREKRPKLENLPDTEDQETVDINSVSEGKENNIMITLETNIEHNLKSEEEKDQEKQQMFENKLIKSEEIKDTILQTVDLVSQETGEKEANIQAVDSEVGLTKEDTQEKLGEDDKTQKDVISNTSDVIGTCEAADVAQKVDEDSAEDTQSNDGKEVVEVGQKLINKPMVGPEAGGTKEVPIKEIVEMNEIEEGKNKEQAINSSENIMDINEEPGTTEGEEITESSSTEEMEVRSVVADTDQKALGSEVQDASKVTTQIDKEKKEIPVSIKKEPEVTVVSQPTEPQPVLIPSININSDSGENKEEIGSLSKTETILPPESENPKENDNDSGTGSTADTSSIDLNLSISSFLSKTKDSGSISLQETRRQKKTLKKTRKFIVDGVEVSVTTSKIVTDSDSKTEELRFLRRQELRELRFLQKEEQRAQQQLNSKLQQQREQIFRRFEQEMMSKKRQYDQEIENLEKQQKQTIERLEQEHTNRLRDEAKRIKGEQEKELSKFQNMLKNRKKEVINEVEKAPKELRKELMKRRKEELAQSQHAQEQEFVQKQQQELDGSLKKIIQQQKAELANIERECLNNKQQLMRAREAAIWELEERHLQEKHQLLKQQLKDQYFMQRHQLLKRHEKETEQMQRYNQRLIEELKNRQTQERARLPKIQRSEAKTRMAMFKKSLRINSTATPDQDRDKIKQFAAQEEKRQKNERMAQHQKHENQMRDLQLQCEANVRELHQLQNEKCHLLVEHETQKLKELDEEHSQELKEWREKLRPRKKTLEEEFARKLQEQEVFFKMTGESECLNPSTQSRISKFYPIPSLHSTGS
# Method: as §1
# BRAF = BRAF (Homo sapiens, UniProt P15056)
# BRAF, sequence (P15056 whole entry): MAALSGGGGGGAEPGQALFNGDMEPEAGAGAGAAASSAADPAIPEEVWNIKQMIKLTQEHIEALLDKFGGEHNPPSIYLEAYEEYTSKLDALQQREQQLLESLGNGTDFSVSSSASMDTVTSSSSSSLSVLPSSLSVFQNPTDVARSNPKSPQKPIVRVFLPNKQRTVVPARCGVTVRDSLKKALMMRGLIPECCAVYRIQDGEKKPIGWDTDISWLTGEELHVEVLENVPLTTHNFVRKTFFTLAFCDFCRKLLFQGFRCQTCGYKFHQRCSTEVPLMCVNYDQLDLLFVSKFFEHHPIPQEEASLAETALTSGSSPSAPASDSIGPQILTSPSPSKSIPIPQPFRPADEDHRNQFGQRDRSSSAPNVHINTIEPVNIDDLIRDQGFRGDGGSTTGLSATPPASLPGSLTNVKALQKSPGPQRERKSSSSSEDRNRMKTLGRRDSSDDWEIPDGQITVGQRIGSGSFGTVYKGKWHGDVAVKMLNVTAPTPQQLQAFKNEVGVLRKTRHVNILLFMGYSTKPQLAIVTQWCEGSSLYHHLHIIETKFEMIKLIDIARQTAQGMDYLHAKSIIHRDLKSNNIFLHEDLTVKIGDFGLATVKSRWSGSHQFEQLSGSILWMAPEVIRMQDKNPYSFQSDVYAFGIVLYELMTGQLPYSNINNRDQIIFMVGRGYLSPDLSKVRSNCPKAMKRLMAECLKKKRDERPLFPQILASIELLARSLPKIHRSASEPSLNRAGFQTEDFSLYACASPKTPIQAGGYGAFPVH
# Method: as §1
# STLK3 = target: T3, STLK3 (Homo sapiens, UniProt Q9UEW8)
# T3 construct: gene STK39
# Method: as §1
# BIKE = target: T4, BIKE (Homo sapiens, UniProt Q9NSY1)
# T4 construct: gene BMP2K
# T4 sequence (Q9NSY1 whole entry): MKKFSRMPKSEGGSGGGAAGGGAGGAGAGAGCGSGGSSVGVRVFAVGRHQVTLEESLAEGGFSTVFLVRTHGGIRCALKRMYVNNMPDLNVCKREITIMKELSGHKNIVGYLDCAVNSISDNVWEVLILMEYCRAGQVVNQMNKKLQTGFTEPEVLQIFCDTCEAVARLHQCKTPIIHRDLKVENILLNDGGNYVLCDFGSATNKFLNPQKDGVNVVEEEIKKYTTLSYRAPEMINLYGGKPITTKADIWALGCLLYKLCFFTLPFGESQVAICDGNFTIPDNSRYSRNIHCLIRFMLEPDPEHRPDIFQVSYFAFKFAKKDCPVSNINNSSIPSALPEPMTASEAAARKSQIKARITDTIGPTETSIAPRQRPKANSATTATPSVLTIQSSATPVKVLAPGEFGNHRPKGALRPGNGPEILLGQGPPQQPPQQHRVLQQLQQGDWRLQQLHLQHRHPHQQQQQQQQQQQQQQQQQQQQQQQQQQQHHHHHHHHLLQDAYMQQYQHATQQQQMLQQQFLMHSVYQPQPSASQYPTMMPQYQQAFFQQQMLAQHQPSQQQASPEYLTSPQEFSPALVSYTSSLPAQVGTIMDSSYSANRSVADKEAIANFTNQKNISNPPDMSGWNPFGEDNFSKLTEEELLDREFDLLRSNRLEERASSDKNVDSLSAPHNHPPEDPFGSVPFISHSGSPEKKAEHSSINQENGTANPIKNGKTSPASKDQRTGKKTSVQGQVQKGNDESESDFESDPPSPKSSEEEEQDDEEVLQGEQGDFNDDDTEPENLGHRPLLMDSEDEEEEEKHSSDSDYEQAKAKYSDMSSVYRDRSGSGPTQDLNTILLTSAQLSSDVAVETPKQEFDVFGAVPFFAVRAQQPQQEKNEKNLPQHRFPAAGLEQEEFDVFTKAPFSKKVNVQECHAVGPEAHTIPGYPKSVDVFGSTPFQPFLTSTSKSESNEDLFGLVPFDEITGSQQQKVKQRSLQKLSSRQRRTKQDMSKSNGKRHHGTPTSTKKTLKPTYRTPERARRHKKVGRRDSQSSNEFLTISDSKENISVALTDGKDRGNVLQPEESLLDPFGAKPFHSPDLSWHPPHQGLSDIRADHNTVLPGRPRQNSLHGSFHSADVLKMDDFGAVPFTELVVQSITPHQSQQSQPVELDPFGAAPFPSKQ
# Method: as §1
# CSNK1E = CSNK1E (Homo sapiens, UniProt P49674)
# CSNK1E, sequence (P49674 whole entry): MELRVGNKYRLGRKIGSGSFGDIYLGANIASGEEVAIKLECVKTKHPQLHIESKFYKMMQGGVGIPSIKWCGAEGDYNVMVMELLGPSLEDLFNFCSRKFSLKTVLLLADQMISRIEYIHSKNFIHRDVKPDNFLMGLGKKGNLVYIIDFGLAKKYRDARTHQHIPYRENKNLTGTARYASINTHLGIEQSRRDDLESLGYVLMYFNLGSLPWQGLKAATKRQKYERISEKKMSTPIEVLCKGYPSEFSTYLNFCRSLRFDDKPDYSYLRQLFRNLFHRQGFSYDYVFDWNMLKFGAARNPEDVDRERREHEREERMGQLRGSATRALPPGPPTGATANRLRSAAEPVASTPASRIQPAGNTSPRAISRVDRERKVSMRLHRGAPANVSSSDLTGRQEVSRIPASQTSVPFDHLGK
# Method: as §1
# p38a = target: T5, p38a (Homo sapiens, UniProt Q16539)
# T5 construct: gene MAPK14
# T5 sequence (Q16539 whole entry): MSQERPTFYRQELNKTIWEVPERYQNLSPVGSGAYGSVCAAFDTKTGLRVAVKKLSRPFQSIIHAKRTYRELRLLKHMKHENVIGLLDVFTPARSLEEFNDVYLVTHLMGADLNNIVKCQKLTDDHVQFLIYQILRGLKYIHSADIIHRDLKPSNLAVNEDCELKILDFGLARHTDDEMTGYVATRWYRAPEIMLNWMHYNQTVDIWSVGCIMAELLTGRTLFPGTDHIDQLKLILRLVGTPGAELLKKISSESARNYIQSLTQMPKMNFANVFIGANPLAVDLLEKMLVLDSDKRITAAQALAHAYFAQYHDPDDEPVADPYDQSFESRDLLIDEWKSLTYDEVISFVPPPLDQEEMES
# Method: as §1
smiles,measurement,setting,value
CC(C)Oc1ccc2ccn(-c3cncc(-c4ccc(C(=O)O)cc4)n3)c2c1 [6c],ΔTm at 10 µM,PAK1; read-out: 6c,0 °C
same,ΔTm at 10 µM,DYRK2; read-out: 6c,11 °C
same,ΔTm at 10 µM,TAF1; read-out: 6c,1 °C
same,ΔTm at 10 µM,ULK1; read-out: 6c,2 °C
same,ΔTm at 10 µM,SLK; read-out: 6c,2 °C
same,ΔTm at 10 µM,BRAF; read-out: 6c,8 °C
same,ΔTm at 10 µM,STLK3; read-out: 6c,0 °C
same,ΔTm at 10 µM,BIKE; read-out: 6c,11 °C
same,ΔTm at 10 µM,CSNK1E; read-out: 6c,3 °C
same,ΔTm at 10 µM,p38a; read-out: 6c,-3 °C
COc1ccc(OC(C)C)cc1Nc1cncc(-c2ccc(C(=O)O)cc2)n1 [7c],ΔTm at 10 µM,PAK1; read-out: 7c,-1 °C
same,ΔTm at 10 µM,DYRK2; read-out: 7c,9 °C
same,ΔTm at 10 µM,TAF1; read-out: 7c,1 °C
same,ΔTm at 10 µM,ULK1; read-out: 7c,1 °C
same,ΔTm at 10 µM,SLK; read-out: 7c,1 °C
same,ΔTm at 10 µM,BRAF; read-out: 7c,7 °C
same,ΔTm at 10 µM,STLK3; read-out: 7c,0 °C
same,ΔTm at 10 µM,BIKE; read-out: 7c,10 °C
same,ΔTm at 10 µM,CSNK1E; read-out: 7c,1 °C
same,ΔTm at 10 µM,p38a; read-out: 7c,-1 °C
"CC(C)Nc1ccc2cnn(-c3cncc(-c4ccc(C(=O)O)cc4)n3)c2c1 [compound 2, 2]",ΔTm at 10 µM,PAK1; read-out: 2,1 °C
same,ΔTm at 10 µM,DYRK2; read-out: 2,12 °C
same,ΔTm at 10 µM,TAF1; read-out: 2,0 °C
same,ΔTm at 10 µM,ULK1; read-out: 2,3 °C
same,ΔTm at 10 µM,SLK; read-out: 2,3 °C
same,ΔTm at 10 µM,BRAF; read-out: 2,6 °C
same,ΔTm at 10 µM,STLK3; read-out: 2,1 °C
same,ΔTm at 10 µM,BIKE; read-out: 2,13 °C
same,ΔTm at 10 µM,CSNK1E; read-out: 2,2 °C
same,ΔTm at 10 µM,p38a; read-out: 2,-1 °C
